Assay results from US20240269106A1, “SMALL MOLECULE MODULATOR TARGETING A RARE HISTONE MODIFICATION REGULATING ADIPOGENESIS AND PHARMACEUTICAL FORMULATION THEREOF” (COUNCIL OF SCIENTIFIC AND INDUSTRIAL RESEARCH AN INDIAN …, priority 2021, published 2024).

What was measured:
[1] = test system: histone butyrylation and acetylation in liver and adipose tissue; assay: Histone modifications in liver and adipose tissue of db/db mice; format: in vivo
Experimental: Liver sample sectioning and immunohistochemical staining was performed using the same protocol as mentioned in example 15. It was observed that H4K5 butyrylation in liver increased in the db/db obese mice liver but was inhibited in presence of compound of Formula I (FIG. 13A). […] Acid extraction of histones was performed from the epididymal fat pads of mice using the same protocol as mentioned in example 7. It was observed that H4K5 butyrylation was reduced in the adipocytes of db/db mice treated with compound of Formula I compared to db/db mice treated with vehicle control (FIG. 13B).

3T3L1 cells = assay: Adipogenesis of 3T3L1 cell line, Oil Red-O staining; format: cell-based
Experimental: The preadipocyte cell line 3T3L1 was seeded in complete DMEM (supplemented with 10% FBS). Once the cells reached almost full confluent state, they were treated with differentiation media (2 μg/mL Insulin, 0.5 mM IBMX and 1 μM Dexamethasone) for 2 days. After the differentiation induction, the cells were kept in maintenance media (2 μg/mL Insulin) for another 4-6 days with media change given every 2 days. The completion of adipogenesis was confirmed by the observation of lipid droplet accumulation in most of the cells. On the 6th day post induction of differentiation the cells were fixed with 3.7% formaldehyde solution followed by staining with Oil Red-O dye (prepared in 60% isopropanol) for 1 hour at room temperature. The incorporated dye was extracted using isopropanol and absorbance values were determined spectrophotometrically at 510 nm to estimate total amount of lipid accumulation under different experimental conditions.

[2] = test system: C57BL/6J mice maintained on high fat diet; assay: Standardization of dosage and administration mode, intraperitoneal, high fat diet mice; format: in vivo
Experimental: Male C57BL/6J mice (8 weeks old) bred in house were obtained and acclimatized for 1 week prior to experiments. Mice were maintained on a 12-hour light/dark cycle at 22+/−3° C. and a relative humidity of 55% and given ad libitum access to food and water. The age-matched C57BL/6J mice were maintained on a standard laboratory chow diet or high fat diet (60 kcal % fat) and water. Two groups were intraperitoneally injected with compound x at two different doses (20 mg/Kg bw and 50 mg/kg bw) twice every week. A third group was injected with equivalent volume of DMSO (for 50 mg/kg bw) as vehicle control. Body weight and food intake was measured twice every week.

[3] = test system: C57BL/6J mice maintained on high fat diet; assay: Weight gain of mice maintained on high fat diet, compound mixed with diet; format: in vivo; conditions: 50 mg/kg bw mixed with high fat diet
Experimental: Male C57BL/6J mice (8 weeks old) were obtained and acclimatized for 1 week prior to experiments. Mice were maintained on a 12-hour light/dark cycle at 22+/−3° C. and a relative humidity of 55% and given ad libitum access to food and water. The age-matched C57BL/6J mice were maintained on a standard laboratory chow diet or high fat diet (60 kcal % fat) with or without compound of Formula I (50 mg/kg body weight) and water. Body weight and food intake was measured twice every week.
Trend of weight gaining after 16 weeks of C57BL6/J mice maintained on normal chow diet, high fat diet and high fat diet mixed with compound of Formula I was plotted (FIG. 9) (panel i); n=4 in each group:one-way ANOVA with Dunnett's multiple comparison; * P<0.05, ** P<0.01, *** P<0.001, ns: not significant. Representative images of dissected bodies showing fat accumulation (panel ii) and epididymal fat pads (panel iii) of the mice from three groups. Representative images of morphology of adipose tissue (iv) and liver (v) from the mice of the three groups, as studied by hematoxylin and eosin staining.

full length p300 = target: T1, full length p300 (Homo sapiens, UniProt Q09472); assay: In vitro p300 butyrylation assay (immunoblot); format: biochemical; conditions: 25 μM
T1 construct: Purified full length p300 protein was used for in vitro acetylation/butyrylation assay
T1 sequence (Q09472 whole entry, species assumed): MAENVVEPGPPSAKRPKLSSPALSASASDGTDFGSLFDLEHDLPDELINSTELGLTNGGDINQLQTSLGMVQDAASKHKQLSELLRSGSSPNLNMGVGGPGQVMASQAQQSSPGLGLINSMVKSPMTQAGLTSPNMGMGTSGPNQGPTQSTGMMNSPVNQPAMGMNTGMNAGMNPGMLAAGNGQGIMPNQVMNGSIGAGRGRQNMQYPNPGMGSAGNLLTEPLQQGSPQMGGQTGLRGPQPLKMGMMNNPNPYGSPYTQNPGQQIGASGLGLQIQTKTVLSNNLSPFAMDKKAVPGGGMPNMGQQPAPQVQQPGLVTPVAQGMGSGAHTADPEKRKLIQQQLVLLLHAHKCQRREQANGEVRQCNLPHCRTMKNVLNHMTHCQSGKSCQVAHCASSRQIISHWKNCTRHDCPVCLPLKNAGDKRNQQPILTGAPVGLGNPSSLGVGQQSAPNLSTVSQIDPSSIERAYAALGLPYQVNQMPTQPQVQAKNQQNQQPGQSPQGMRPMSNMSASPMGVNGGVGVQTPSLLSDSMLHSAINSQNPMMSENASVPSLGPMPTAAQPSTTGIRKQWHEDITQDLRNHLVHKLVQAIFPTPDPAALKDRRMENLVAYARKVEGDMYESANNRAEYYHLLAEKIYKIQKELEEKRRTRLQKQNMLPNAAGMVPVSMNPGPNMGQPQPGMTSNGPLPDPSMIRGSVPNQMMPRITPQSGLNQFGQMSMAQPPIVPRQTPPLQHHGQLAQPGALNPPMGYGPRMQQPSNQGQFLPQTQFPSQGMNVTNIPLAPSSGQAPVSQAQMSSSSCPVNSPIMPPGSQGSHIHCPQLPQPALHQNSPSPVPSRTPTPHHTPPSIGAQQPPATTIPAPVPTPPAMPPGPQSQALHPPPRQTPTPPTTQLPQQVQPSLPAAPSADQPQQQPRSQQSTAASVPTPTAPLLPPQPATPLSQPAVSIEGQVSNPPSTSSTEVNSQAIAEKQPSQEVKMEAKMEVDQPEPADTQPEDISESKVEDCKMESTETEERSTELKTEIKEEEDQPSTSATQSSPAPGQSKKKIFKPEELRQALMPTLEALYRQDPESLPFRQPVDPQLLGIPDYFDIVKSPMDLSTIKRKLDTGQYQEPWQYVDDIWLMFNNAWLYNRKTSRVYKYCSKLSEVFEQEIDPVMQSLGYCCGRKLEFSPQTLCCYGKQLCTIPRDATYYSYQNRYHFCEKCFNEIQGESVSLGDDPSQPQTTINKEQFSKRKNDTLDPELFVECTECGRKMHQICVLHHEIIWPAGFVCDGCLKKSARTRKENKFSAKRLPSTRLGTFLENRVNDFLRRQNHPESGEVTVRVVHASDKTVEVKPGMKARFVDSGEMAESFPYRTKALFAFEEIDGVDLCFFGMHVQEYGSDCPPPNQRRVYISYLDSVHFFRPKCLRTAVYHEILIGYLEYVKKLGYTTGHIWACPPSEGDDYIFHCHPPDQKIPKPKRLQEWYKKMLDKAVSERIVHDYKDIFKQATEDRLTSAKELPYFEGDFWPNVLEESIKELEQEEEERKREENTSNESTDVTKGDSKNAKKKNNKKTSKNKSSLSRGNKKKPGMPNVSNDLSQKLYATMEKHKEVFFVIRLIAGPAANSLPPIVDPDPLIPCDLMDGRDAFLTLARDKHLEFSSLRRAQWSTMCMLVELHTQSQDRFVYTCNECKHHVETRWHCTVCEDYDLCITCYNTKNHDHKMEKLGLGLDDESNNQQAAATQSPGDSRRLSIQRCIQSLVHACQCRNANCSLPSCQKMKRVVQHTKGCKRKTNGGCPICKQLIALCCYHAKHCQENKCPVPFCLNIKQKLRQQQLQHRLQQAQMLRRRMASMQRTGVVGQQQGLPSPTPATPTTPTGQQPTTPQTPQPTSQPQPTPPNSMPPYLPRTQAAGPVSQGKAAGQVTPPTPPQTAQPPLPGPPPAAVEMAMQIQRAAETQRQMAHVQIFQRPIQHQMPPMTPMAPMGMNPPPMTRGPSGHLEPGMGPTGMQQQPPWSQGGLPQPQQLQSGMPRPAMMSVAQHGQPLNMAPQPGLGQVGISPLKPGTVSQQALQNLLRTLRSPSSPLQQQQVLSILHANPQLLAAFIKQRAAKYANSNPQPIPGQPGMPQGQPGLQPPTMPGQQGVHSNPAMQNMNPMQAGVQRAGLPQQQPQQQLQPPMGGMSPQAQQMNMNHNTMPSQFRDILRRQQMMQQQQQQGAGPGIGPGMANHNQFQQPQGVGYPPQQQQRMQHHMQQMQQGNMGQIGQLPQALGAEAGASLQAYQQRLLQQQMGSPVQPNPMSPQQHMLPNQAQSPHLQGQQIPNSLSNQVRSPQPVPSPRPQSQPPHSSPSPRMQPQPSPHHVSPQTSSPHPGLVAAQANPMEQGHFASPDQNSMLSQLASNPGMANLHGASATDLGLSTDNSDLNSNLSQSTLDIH
Experimental: Purified full length p300 protein was used for in vitro acetylation/butyrylation assay in presence/absence of different compounds. Acylation reactions were performed in reaction buffer (25 mM Tris-HCl PH 7.5, 100 mM NaCl, 0.1 mM EDTA, 1 mM DTT, 10% Glycerol, 1×PIC) with 100 ng/ml TSA, and 50 μM Butyryl-CoA/Acetyl COA. Xenopus histone H3 (500 ng) was used as the substrate and p300 (10,000 cpm activity) was used as the enzyme. Reactions were incubated in presence or absence of small molecule modulators (including compound of Formula I) for 10 minutes at 30° C., followed by initiation of the acetylation/butyrylation reaction by the addition of acetyl/butyryl CoA. After a further 10 minutes, reactions were stopped by addition of Laemmli buffer and samples were used for immunoblotting.
Immunoblotting with antibodies against acetylated H3K18, acetylated H3K9 and pan-butyryl lysine was performed to check for the relative inhibition of acetyl transferase and butyryl transferase activities of full length p300 by garcinol, isogarcinol and its different derivatives including compound of Formula I at different concentrations. FIG. 2i depicts the effect of garcinol, isogarcinol and two of its derivatives LTK-13 and LTK-14 on p300 catalysed acetyltransferase activity. […] FIG. 2ii depicts the effect of LTK-14 on acetylation and butyrylation catalysed by p300. Lane 1, enzyme alone; Lane 2-4, enzyme+LTK-14 at concentrations 500 nM, 2 μM and 10 μM, respectively. LTK-14 could inhibit acetylation at 10 μM concentration while butyrylation was inhibited at 2 μM concentration. FIG. 2iii depicts the effect of compound x on acetylation and butyrylation catalysed by p300. Lane 1, enzyme alone; Lane 2, enzyme+DMSO; Lane 3-6, enzyme+compound x at concentrations 10, 15, 20 and 25 μM, respectively.

In the case of `COc1ccc(C(=O)C2=C3OC(C)(C)[C@@H](CC=C(C)C)C[C@@]34C[C@@H](CC=C(C)C)C(C)(C)[C@@](CC=C(C)C)(C2=O)C4=O)cc1OC` [Compound X], the “H4K5 butyrylation in adipocytes” value ([1]; epididymal fat pads, immunoblot) was “reduced”, the “H4K5 butyrylation in liver” value ([1]; immunohistochemistry) was “inhibited” and the “H4K12 and H3K14 acetylation in liver” value ([1]; immunohistochemistry) was “not affected”. The “adipogenesis, Oil-Red O staining” value (3T3L1 cells) was “inhibition of adipogenesis”, the weight gain ([2]; 20 mg/kg bw intraperitoneal twice every week) was “not sufficient for arresting weight gain” and the body weight ([2]; 50 mg/kg bw intraperitoneal twice every week, DMSO vehicle gave almost similar arrest) was “did have an attenuating effect”. The adipose tissue hypertrophy [3] was “less hypertrophy”, the liver lipid accumulation [3] was “less lipid accumulation” and the weight gain ([3]; 16 weeks) was “prevented weight gain”. For the same compound, the “effect on butyrylation catalysed by p300” value (full length p300) was “significant inhibitory effect”.
